# Experimental data as given in patent US11013236B2, “Pesticidal Flavobacterium strain and bioactive compositions metabolites and uses” (Marrone Bio Innovations, Inc., priority 2012, dated 2021).
# Assays:
# M. hapla = assay: In vitro 96-well plate bioassay of purified peaks of fraction 3; type: in vivo, Meloidogyne hapla; conditions: 24 hour at 25° C.
# Description: (§1) Once the purification of fraction 3 is complete and all of the desired peaks/compounds are collected as described above, each peak is tested in an in vitro 96-well plastic cell-culture plate extract bioassay in order to identify the peak/s that contain the desired active metabolite/s.
# (§2) 15-20 nematodes in a […] water solution are exposed to […] of a 20 mg/ml peak concentrate (1.13 mg/ml total exposure) for a 24 hour period at 25° C. Once the incubation period is completed, results are recorded based on a visual grading of immotility of the J2s in each well treated with H492 purified peaks of H1 to H39, plus H29-A derived from fraction 3, each treatment is tested in four replicates. Three controls are included in each trial; one positive control (1% avid). and two negative controls (DMSO and water). Trial 1 (T1) was carried out using the method described above with M. hapla, trial 2 and 3 (T2 and T3) were carried out using the latter method with M. incognita (FIG. 22).
# M. incognita [1] = assay: as above; type: in vivo, Meloidogyne incognita; conditions: 24 hour at 25° C.
# Description: as §1, §2
# [2] = test system: nematode juveniles (J2) of M. incognita (Monsanto strain); assay: Dose response % immotility for synthesized polyketide, 6-well plate immobility bioassay; type: in vivo, Meloidogyne incognita; conditions: tested 0.14-1.69 mg/mL in DMSO; 24 h exposure, 24 h on water agar; FIG. 23
# Description: The synthetic polyketide (MW 176) was tested at several doses (concentrations tested were 0.14, 0.28, 0.42, 0.56, 0.84, 1.13, 1.69 mg/mL of polyketide in DMSO) in the 6-well plate immobility bioassay to find the optimal dose of this compound needed in order to detect nematicidal activity. In this particular assay the nematode juveniles (J2) of M. incognita (Monsanto strain) were first exposed to the tested samples in 96-well plate: 50 μl of water containing approximately 300 J2 were mixed with 3 μl of polyketide sample or controls (avid (2%) as positive control or DMSO and water as negative controls, respectively. After 24 h incubation, 20 μl of J2 suspension from each well was transferred into the wells of 6-well plates filled with water agar (3 mL of 1% agar per each well). The plates were left open for 10-15 min to allow the solutions to dry out. Afterwards, circles were drawn around the J2 suspension and initial numbers of J2 inside the circles were counted under the stereomicroscope. The plates were incubated for another 24 h and the numbers of J2 that remained immotile (i.e. were still present inside the circles) were counted using stereomicroscope. The % of nematode immotility was expressed as: [(number of immotile nematodes after 24 h incubation/initial number of J2)*100%].
# M. incognita [3] = assay: Greenhouse cone test of polyketide 1, tomato (cv. UC82) as host; type: in vivo, Meloidogyne incognita; conditions: compared to water control
# Description: The nematicidal activity of polyketide 1 (MW 176 compound) against root-knot nematodes was further assessed in greenhouse in cone tests using M. incognita and tomato (cv. UC82) as a host. The tomato seeds were germinated in vermiculate and 3-week-old seedlings were transferred to the cones containing mixture of sand and top soil (1:1). Two weeks after transplanting, tomato plants were treated with the samples. […] Four different concentrations (100, 10, 1, & 0.1 μg/mL) of the polyketide prepared in 4% methanol (MeOH) were dosed as 10 mL of soil drench into each pot. Each treatment was tested in 5 replicates. Following the drench each pot was inoculated with 1000 nematode eggs suspended in 1 mL of water. The dosing of the product was repeated after two weeks. Three weeks later, the inoculation test was terminated and the following parameters were scored: number of galls/root, gall index and fresh top weight.
# [4] = test system: Avidovorax avenae subsp. citrulli; assay: Antimicrobial agar disc assay; type: cell-based
# Description: (§3) The pure 1-(4-hydroxyphenyl) pent-1-en-3-one (1) “polyketide MW 176” was tested against various microbial pathogens using agar disc assay.
# Bacillus cereus = assay: Antimicrobial agar disc assay; type: cell-based
# Description: as §3
# Erwinia amylovora = assay: Antimicrobial agar disc assay; type: cell-based
# Description: as §3
# Xanthomonas campestris = assay: Antimicrobial agar disc assay; type: cell-based
# Description: as §3
# nematodes (J2's) = assay: SAR motility bioassay of synthetic analogues; type: in vivo; conditions: 3 μL at 20 mg/ml into 50 μl with approximately 300 J2's, 24 hours, then 24 hour recovery on 1.5% water agar; average of 6 repetitions
# Description: To quickly understand which part of the 1-(4-hydroxyphenyl) pent-1-en-3-one (1) molecule (polyketide) plays a crucial role on the nematicidal activity, a series of structural analogues were synthesized and evaluated using motility test. This bioassay serves to distinguish the differences in efficacy by measuring the recovery and the mobility of the nematodes after being exposed to any given compound with 6 repetitions per treatment. This bioassay involves the following procedure: 3 μL (at 20 mg/ml) of the sample are dispensed into 50 μl of approximately 300 J2's in a 96-well plastic cell-culture plate. After 24 hours, 100-150 of the treated J2's were transferred into 6-well plates that contain 1.5% water agar. After drying of the test sample on the agar, the initial drop was marked and initial counts of the J2's were carried out. After another 24 hour recovery period, the immobilization of the juveniles were measured by counting the number of J2's that moved from the initial circle and an average of the 6 repetitions were calculated to get the percent immobilization of each sample.
Compound,Average % immobility (nematodes (J2's)) [%],further results
"CCC(=O)/C=C/c1ccc(O)cc1 [Compound 1, 1-(4-hydroxyphenyl) pent-1-en-3-one]",–,"Potency in in vitro assay (immotility of J2s) (M. hapla): confirmed; Potency in in vitro assay (immotility of J2s) (M. incognita [1]): confirmed; optimal range required for good nematicidal activity (% immotility) [2]: ≥ 0.5 mg/mL; gall index (M. incognita [3]; 0.1 mg/ml, 10 mL soil drench, 1st test): significantly reduced; gall index and galls per root (M. incognita [3]; 0.001 & 0.01 mg/ml, 10 mL soil drench, 1st test): significantly reduced; gall index (M. incognita [3]; all tested dilutions, 2nd test): significantly reduced; antimicrobial activity [4]: moderate activity; antimicrobial activity (Bacillus cereus): moderate activity; antimicrobial activity (Erwinia amylovora): potent activity; antimicrobial activity (Xanthomonas campestris): moderate activity"
"CC(=O)/C=C/c1ccccc1 [SAR-1, (E)-4-phenylbut-3-en-2-one]",99,–
"O=C(/C=C/c1ccccc1)c1ccccc1 [SAR-2, Benzalacetophenone]",4,–
"CC(=O)/C=C/c1ccccc1O [SAR-3, (E)-4-(2-hydroxyphenyl)but-3-en-2-one]",95,–
"CC(=O)/C=C/C=C/c1ccccc1 [SAR-4, (3E,5E)-6-phenylhexa-3,5-dien-2-one]",97,–
"O=C(/C=C/C=C/c1ccccc1)c1ccccc1 [SAR-5, (2E,4E)-1,5-diphenylpenta-2,4-dien-1-one]",98,–
"CCC(=O)/C=C/c1ccccc1O [SAR-6, (E)-1-(2-hydroxyphenyl)pent-1-en-3-one]",98,–
"O=C(/C=C/c1ccccc1O)c1ccccc1 [SAR-7, (E)-3-(2-hydroxyphenyl)-1-phenylprop-2-en-1-one]",99,–
"CC(C)CC(=O)/C=C/c1ccccc1O [SAR-8, (E)-1-(2-hydroxyphenyl)-5-methylhex-1-en-3-one]",100,–
"O=C(/C=C/c1ccc(O)cc1)c1ccccc1 [SAR-9, (E)-3-(4-hydroxyphenyl)-1-phenylprop-2-en-1-one]",100,–
"CC(C)CC(=O)/C=C/c1ccc(O)cc1 [SAR-10, (E)-1-(4-hydroxyphenyl)-5-methylhex-1-en-3-one]",96,–
"CC(=O)/C=C/c1cccc(O)c1 [SAR-11, (E)-4-(3-hydroxyphenyl)but-3-en-2-one]",99,–
"CC(=O)/C=C/c1ccccc1O [SAR-12, (E)-4-(2-hydroxyphenyl)but-3-en-2-one]",99,–
"O=Cc1ccccc1OCC(=O)c1ccccc1 [SAR-13, 2-(2′-phenyl-2-oxoethoxy) benzaldehyde]",74,–
"CC(=O)/C(C)=C/c1ccccc1O [SAR-14, (E)-4-(2-hydroxyphenyl)-3-methylbut-3-en-2-one]",97,–
"CC/C=C/C(=O)c1ccccc1 [SAR-15, (E)-1-phenylpent-2-en-1-one]",20,–
"CC/C=C\CC/C=C/C(C)=O [SAR-16, (3E,7Z)-deca-3,7-dien-2-one]",94,–
"O=C(/C=C/c1cccc(O)c1)/C=C/c1cccc(O)c1 [SAR-18, (1E,4E)-1,5-bis(3-hydroxyphenyl) penta-1,4-dien-3-one]",23,–
"O=C(/C=C/Cc1ccccc1)c1ccccc1 [SAR-19, (E)-1,4-diphenylbut-2-en-1-one]",64,–
"O=C(/C=C/Cc1ccccc1)c1ccc(O)cc1 [SAR-20, (E)-1-(4-hydroxyphenyl)-4-phenylbut-2-en-1-one]",28,–
"C/C(=C\c1cccc(O)c1)C(=O)/C=C/c1cccc(O)c1 [SAR-21, (1E,4E)-1,5-bis(3-hydroxyphenyl)-2-methylpenta-1,4-dien-3-one]",12,–
"O=C(/C=C/c1cccc(O)c1)c1ccccc1 [SAR-22, (E)-3-(3-hydroxyphenyl)-1-phenylprop-2-en-1-one]",70,–

Compound,Average % immobility (nematodes (J2's)) [%],further results
"CCC(=O)/C=C/c1ccccc1 [SAR-23, (E)-1-phenylpent-1-en-3-one]",80,–
"CC(=O)/C(C)=C/c1ccc(O)cc1 [SAR-24, (E)-4-(4-hydroxyphenyl)-3-methylbut-3-en-2-one]",80,–
"CC(C)CC(=O)/C=C/c1ccccc1 [SAR-25, (E)-5-methyl-1-phenylhex-1-en-3-one]",79,–
"O=C(CBr)c1ccccc1 [SAR-26, 2-bromo-1-phenylethanone]",50,–
"CC(C)CC(=O)/C=C/c1cccc(O)c1 [SAR-27, (E)-1-(3-hydroxyphenyl)-5-methylhex-1-en-3-one]",78,–
"CC(=O)/C=C/c1ccc(O)cc1 [SAR-28, (E)-4-(4-hydroxyphenyl)but-3-en-2-one]",78,–
"O=Cc1cccc(O)c1 [SAR-29, 3-hydroxybenzaldehyde]",70,–
"O=Cc1ccc(O)cc1 [SAR-30, 4-hydroxybenzaldehyde]",58,–
"O=Cc1ccccc1O [SAR-31, 2-hydroxybenzaldehyde]",58,–
"O=Cc1ccccc1 [SAR-32, Benzaldehyde]",65,–
"CCCCCCCCC1CCC(=O)O1 (stereo not shown) [SAR-33, γ-dodecalactone]",63,–
"CCCCC1CCC(=O)O1 (stereo not shown) [SAR-34, γ-octalactone]",21,–
"CCCCCCC(C)=O [SAR-35, 2-octanone]",33,–
"CCCCCC(C)=O [SAR-36, 2-heptanone]",21,–
"CCCCCCCCCC(C)=O [SAR-37, 2-undecanone]",67,–
"CC/C=C\CCC=O [SAR-38, cis-4-heptenal]",21,–
"CC(=O)CC(C)C [SAR-39, 4-methyl-2-pentanone]",54,–
"CC(C)C=O [SAR-40, iso-butyraldehyde]",79,–
"CC(=O)CC(C)(C)O [SAR-41, 4-hydroxy-4-methylpentanone]",21,–
"COc1ccccc1C=O [SAR-42, o-anisaldehyde]",8,–
"CCC(C)=O [SAR-43, 2-butanone]",21,–
